Assay results taken from patent publication US20100184094A1, “USE OF MDCK CELLS IN THE EVALUATION OF CHOLESTEROL MODULATORS” (priority 2007, published 2010).

What was measured:
MDCKII-Flp cells = experiment: [3H]cholesterol flux into MDCKII-Flp cells; format: cell-based, dog; settings: 10 μM PS, 5.5% βmCD pre-treatment
Experimental: (§1) Flux assays were performed essentially as described by Yu et al., 2006 J Biol. Chem. 281:6616-6624. Briefly, cell growth medium was completely aspirated and replaced with 200 μl of 5% LPDS containing the appropriate concentration of compound and incubated at 37° C./3 h in a 5% CO2 incubator. Media was subsequently aspirated from cells and cells were incubated in 200 μl of 0-5.5% βmCD dissolved and filtered through a […] filter at 37° C./45 minutes in a 5% CO2 incubator. Media was dumped from cells that were then washed twice with 125 μl of 5% LPDS before media was aspirated and [3H]cholesterol complexed to BSA in 5% LPDS was added; see Yu et al., 2006 J. Biol. Chem. 281:6616-6624. After 45 minute incubation, cells were washed twice with DMEM, thoroughly aspirated and then 1% SDS was added prior to extraction for scintillation counting.
To validate MDCKII cells as an appropriate surrogate system for monitoring NPC1L1-dependent processes, we evaluated their ability to perform EZE-sensitive cholesterol flux using a similar protocol to that recently reported. This assay makes use of the ability of βmCD to deplete membrane-bound cholesterol. Subsequent exposure of cells to [^3H] cholesterol provides a time-dependent flux of this substrate into the cells. […]

dog NPC1L1 = dog NPC1L1 (Canis lupus familiaris, UniProt A0A8I3RZG1); experiment: [3H]cholesterol flux into dNPC1L1/MDCKII-Flp cells; format: cell-based
Experimental: as §1
Further evidence for the role of NPC1L1 expression levels on EZE-sensitive [^3H]cholesterol influx was obtained by analyzing the properties of MDCKII-Flp cells over-expressing dog NPC1L1 (dNPC1L1/MDCKII-Flp cells) in an inducible manner.
To further characterize the [^3H] cholesterol influx process into MDCK cells, the potency of EZE-like compound PS for inhibiting [^3H] cholesterol uptake was determined. […]

Sequence of dog NPC1L1 (A0A8I3RZG1 entry or part of it): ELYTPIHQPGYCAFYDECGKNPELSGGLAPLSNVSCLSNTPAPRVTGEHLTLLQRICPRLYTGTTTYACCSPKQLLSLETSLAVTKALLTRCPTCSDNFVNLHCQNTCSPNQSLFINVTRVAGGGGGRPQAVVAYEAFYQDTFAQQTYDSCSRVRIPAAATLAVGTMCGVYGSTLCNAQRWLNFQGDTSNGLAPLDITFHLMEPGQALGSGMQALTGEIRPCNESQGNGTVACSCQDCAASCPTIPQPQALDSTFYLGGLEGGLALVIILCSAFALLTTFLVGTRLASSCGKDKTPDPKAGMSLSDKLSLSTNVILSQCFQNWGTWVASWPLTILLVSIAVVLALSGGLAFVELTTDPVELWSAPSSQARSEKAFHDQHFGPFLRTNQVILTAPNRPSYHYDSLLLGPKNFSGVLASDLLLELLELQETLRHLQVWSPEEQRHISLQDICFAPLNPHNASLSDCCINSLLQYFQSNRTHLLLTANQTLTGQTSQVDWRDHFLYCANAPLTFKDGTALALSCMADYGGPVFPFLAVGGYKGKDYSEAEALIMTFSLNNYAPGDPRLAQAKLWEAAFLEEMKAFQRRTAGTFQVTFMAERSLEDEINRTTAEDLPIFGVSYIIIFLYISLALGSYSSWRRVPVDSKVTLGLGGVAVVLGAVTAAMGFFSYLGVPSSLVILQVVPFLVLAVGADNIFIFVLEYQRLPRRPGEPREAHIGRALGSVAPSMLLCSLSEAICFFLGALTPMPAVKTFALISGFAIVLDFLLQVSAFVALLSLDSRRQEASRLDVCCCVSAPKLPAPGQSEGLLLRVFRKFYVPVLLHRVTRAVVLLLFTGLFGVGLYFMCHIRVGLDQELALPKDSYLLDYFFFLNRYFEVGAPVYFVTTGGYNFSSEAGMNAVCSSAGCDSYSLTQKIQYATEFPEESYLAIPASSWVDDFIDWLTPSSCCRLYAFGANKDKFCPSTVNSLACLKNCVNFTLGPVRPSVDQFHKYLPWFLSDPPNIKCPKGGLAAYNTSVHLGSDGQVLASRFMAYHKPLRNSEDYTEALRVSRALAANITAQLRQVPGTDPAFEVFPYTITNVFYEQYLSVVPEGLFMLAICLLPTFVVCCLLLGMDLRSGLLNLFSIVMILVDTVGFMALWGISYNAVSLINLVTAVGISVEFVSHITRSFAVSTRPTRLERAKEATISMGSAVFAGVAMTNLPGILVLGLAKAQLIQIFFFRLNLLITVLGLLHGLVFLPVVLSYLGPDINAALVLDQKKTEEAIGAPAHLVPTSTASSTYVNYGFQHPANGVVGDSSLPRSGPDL

COC(=O)[C@H]1O[C@@H](Oc2ccc([C@@H]3[C@@H](CC[C@H](O)c4ccc(F)cc4)C(=O)N3c3ccc(C#CCNS(C)(=O)=O)cc3)cc2)[C@H](O)[C@@H](O)[C@@H]1O [PS, 4-[(2S,3R)-3-[(3S)-3-(4-fluorophenyl)-3-hydroxypropyl]-1-(4-{3-[(methylsulfonyl)amino]prop-1-yn-1-yl}phenyl)-4-oxoazetidin-2-yl]phenyl methyl-β-D-glucopyranosiduronate]
blockade of [3H]cholesterol influx (MDCKII-Flp cells): marginally blocked
blockade of [3H]cholesterol influx (dog NPC1L1; 10 μM PS, 5.5% βmCD, after induction with 4 mM sodium butyrate): almost completely blocked
IC50 (dog NPC1L1; dNPC1L1/MDCKII-Flp, FIG. 7C, read-out: IC50 inhibition of [3H]cholesterol uptake): 0.32 ± 0.09 nM
